Source: paper PMC11813896, “Bis(7)-harmine derivatives as potential multi-target anti-Alzheimer agents” (Frontiers in Chemistry, 2025)

Experiments:
hAChE = hAChE (Homo sapiens, UniProt P22303); assay: biochemical; conditions: for inhibition at 1 µM: compound at 1 μM, read-out: inhibition of hAChE in primary screening; for IC50: Mean ± SD from 3-5 assays, read-out: IC50 (nM) for cholinesterase hAChE
Method: 50 μL of hAChE (0.02 unit/mL) or hBChE (0.02 unit/mL) were incubated with 10 μL of the compound in 96-well plates at 37°C for 6 min. Subsequently, 30 μL of a substrate solution containing acetylthiocholine iodide (ATCI) or butyrylthiocholine iodide (BTCI) at a concentration of 0.01 M was added, and the mixture was further incubated at 37°C for an additional duration of 12 min.

hBuChE = hBuChE (Homo sapiens, UniProt P06276); assay: Ellman's assay, hBuChE inhibition; assay type: biochemical; conditions: for inhibition at 1 µM: compound at 1 μM, read-out: inhibition of hBuChE in primary screening; for IC50: Mean ± SD from 3-5 assays, read-out: IC50 (nM) for cholinesterase hBuChE
Chain of hBuChE (P06276 29-602): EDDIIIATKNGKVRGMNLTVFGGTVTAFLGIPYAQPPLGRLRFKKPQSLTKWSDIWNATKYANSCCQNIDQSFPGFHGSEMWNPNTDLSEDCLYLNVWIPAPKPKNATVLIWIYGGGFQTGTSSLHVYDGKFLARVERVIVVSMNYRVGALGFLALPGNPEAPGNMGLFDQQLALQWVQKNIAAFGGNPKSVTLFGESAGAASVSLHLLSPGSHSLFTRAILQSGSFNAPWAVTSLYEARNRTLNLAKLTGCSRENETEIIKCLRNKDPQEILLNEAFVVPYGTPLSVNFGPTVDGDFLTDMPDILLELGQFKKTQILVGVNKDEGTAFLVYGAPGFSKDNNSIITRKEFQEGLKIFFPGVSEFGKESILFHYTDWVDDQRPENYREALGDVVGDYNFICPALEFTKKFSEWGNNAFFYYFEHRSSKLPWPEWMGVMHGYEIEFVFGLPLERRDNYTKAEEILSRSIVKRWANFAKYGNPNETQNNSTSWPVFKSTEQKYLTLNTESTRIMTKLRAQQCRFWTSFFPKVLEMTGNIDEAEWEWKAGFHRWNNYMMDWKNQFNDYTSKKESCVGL
Method: The Ellman’s assay was utilized to assess the inhibitory potential of novel bis(7)-harmine derivatives against hAChE and hBuChE. 50 μL of hAChE (0.02 unit/mL) or hBChE (0.02 unit/mL) were incubated with 10 μL of the compound in 96-well plates at 37°C for 6 min. Subsequently, 30 μL of a substrate solution containing acetylthiocholine iodide (ATCI) or butyrylthiocholine iodide (BTCI) at a concentration of 0.01 M was added, and the mixture was further incubated at 37°C for an additional duration of 12 min. Finally, the activity was measured by adding 150 μL of a solution containing 5,5′−dithiobis (2-nitrobenzoic acid) (DTNB) at a concentration of 0.01 M, followed by measuring absorbance at a wavelength of 415 nm using an Evolution 300 PC UV-Vis Spectrophotometer.

recombinant hMAO-A = molecular target: T1, recombinant hMAO-A (Homo sapiens, UniProt P21397); assay: biochemical; conditions: for IC50: mean ± SD, read-out: IC50 (nM) for monoamine oxidases hMAO-A; for inhibition at 1 µM: compound at 1 μM, read-out: inhibition of hMAO-A in primary screening
T1 construct: purchased Sigma-Aldrich
T1 sequence (P21397 1-527): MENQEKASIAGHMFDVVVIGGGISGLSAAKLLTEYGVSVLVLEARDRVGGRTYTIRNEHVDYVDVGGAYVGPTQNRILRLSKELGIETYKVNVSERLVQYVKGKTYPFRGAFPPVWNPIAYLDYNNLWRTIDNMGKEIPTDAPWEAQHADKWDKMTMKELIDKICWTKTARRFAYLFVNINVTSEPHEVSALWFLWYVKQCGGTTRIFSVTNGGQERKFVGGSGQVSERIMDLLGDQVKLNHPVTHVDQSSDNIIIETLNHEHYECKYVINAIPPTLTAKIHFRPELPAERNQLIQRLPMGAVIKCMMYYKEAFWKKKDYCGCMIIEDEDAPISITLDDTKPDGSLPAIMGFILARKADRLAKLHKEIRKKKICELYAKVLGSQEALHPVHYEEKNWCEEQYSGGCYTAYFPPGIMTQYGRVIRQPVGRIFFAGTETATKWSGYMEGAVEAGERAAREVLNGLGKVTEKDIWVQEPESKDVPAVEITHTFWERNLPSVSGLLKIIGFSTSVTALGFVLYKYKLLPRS
Method: (§1) Briefly, the compounds under investigation and the reference inhibitor were preincubated with kynuramine at 37°C for 10 min in 96-well microplates. […] The enzymatic reactions were terminated by adding 400 μL of 2 N NaOH and 1,000 μL of water, followed by centrifugation at 16,000 g for 10 min. Subsequently, the concentrations of MAOs that produced 4-hydroxyquinoline were determined by measuring the fluorescence of the supernatant using a Varioskan Flash Multimode Reader ([…]) with excitation and emission wavelengths set at 310 nm and 400 nm, respectively. The IC50 values were calculated from dose-response curves and expressed as the mean ± standard deviation. These values were determined based on at least three independent experiments, each performed in triplicate.

recombinant hMAO-B = molecular target: T2, recombinant hMAO-B (Homo sapiens, UniProt P27338); assay: biochemical; conditions: for IC50: mean ± SD, read-out: IC50 (nM) for monoamine oxidases hMAO-B; for inhibition at 1 µM: compound at 1 μM, read-out: inhibition of hMAO-B in primary screening
T2 construct: purchased Sigma-Aldrich
T2 sequence (P27338 1-520): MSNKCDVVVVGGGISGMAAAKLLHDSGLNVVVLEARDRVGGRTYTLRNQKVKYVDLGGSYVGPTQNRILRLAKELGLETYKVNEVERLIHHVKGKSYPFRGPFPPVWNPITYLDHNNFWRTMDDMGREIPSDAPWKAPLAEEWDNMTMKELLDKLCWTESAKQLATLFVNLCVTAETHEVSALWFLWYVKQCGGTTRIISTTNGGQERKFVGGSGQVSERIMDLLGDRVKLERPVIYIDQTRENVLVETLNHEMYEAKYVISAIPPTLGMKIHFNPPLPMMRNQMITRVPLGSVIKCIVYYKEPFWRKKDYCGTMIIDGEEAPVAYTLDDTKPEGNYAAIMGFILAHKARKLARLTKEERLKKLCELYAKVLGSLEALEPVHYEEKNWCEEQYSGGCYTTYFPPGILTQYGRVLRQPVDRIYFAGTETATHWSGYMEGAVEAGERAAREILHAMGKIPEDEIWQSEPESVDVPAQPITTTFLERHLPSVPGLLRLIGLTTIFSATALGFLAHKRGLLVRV
Method: as §1

Aβ 1−42 = Aβ 1−42 (Homo sapiens, UniProt P05067); assay: Thioflavin T fluorescence assay, Aβ 1−42 self-aggregation; assay type: biochemical; conditions: for IC50: Aβ 1-42 20 μM, 37°C, 24 h; for inhibition percent ratio of self-induced Aβ 1-42 aggregation: compound at 20 μM
Chain of Aβ 1−42 (P05067 672-713 limits assumed): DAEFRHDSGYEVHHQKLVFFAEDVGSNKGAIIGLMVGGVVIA
Method: The thioflavin T (Th-T) fluorescence assay was used to assess the inhibition of Aβ 1−42 self-aggregation. […] Subsequently, the reaction was terminated to a final volume of 200 μL using Th-T (10 μM) solution.

Chain of hAChE (P22303 32-614): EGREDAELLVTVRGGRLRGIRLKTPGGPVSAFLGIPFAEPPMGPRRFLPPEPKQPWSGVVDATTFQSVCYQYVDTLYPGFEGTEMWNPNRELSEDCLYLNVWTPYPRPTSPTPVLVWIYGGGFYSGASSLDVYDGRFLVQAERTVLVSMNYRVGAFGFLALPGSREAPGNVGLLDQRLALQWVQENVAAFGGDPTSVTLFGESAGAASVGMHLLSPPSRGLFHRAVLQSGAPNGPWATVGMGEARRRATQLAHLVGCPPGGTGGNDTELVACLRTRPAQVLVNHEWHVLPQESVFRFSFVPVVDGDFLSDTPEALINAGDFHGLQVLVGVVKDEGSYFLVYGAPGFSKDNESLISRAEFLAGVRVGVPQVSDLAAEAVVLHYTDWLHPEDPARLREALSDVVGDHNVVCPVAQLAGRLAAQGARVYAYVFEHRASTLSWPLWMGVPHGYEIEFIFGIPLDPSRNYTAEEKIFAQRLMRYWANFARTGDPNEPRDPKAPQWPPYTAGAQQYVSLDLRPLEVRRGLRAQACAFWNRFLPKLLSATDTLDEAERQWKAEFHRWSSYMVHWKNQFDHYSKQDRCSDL

SMILES	inhibition at 1 µM (hAChE)	inhibition at 1 µM (hBuChE)	S.I. Selectivity index IC50(hMAO-B)/IC50(hMAO-A) (recombinant hMAO-A)	IC50 (recombinant hMAO-A)	IC50 (recombinant hMAO-B)	IC50 (Aβ 1−42)	S.I. Selectivity index IC50(hBuChE)/IC50(hAChE) (hAChE)	IC50 (hAChE)	IC50 (hBuChE)	inhibition at 1 µM (recombinant hMAO-B)	inhibition percent ratio of self-induced Aβ 1-42 aggregation (Aβ 1−42)	inhibition at 1 µM (recombinant hMAO-A)
Cc1nccc2c3ccc(OCCCCCCCCOc4ccc5c6ccnc(C)c6n(C)c5c4)cc3n(C)c12 [Compound 8a, 1,8-bis ((1,9-dimethyl-9H-pyrido [3,4-b]indol-7-yl)oxy)octane]	42.2%	39.1%	10.0	95.2 ± 4.9 nM	954 ± 49.8 nM	16.5 ± 0.4 µM						
Cc1nccc2c3ccc(OCCCCCCOc4ccc5c6ccnc(C)c6n(C)c5c4)cc3n(C)c12 [Compound 6a, 1,6-bis ((1,9-dimethyl-9H-pyrido [3,4-b]indol-7-yl)oxy)hexane]			7.1	123 ± 7.2 nM	863 ± 61.3 nM	19.8 ± 1.1 µM	0.7	493 ± 30.3 nM	331 ± 21.5 nM			
Cc1nccc2c3ccc(OCCCCCOc4ccc5c6ccnc(C)c6n(C)c5c4)cc3n(C)c12 [Compound 5a, 1,5-bis ((1,9-dimethyl-9H-pyrido [3,4-b]indol-7-yl)oxy)pentane]			>4.1	241 ± 13.8 nM			0.3	827 ± 41.5 nM	256 ± 15.7 nM	25.6%	40.6%	
CCn1c2cc(OCCCCCCCOc3ccc4c5ccnc(C)c5n(CC)c4c3)ccc2c2ccnc(C)c21 [Compound 7b, 1,7-bis ((9-ethyl-1-methyl-9H-pyrido [3,4-b]indol-7-yl)oxy)heptane]		36.5%	0.5	150 ± 12.4 nM	79.8 ± 4.9 nM		>2.6	386 ± 26.8 nM			29.6%	
CCCn1c2cc(OCCCCCCOc3ccc4c5ccnc(C)c5n(CCC)c4c3)ccc2c2ccnc(C)c21 [Compound 6c, 1,6-bis ((1-methyl-9-propyl-9H-pyrido [3,4-b]indol-7-yl)oxy)hexane]			25.2	21 ± 1.18 nM	529 ± 38.7 nM		12.1	82.1 ± 6.9 nM	994 ± 73.4 nM		35.8%	
CCn1c2cc(OCCCCCCOc3ccc4c5ccnc(C)c5n(CC)c4c3)ccc2c2ccnc(C)c21 [Compound 6b, 1,6-bis ((9-ethyl-1-methyl-9H-pyrido [3,4-b]indol-7-yl)oxy)hexane]			>1.1	893 ± 59.3 nM			0.1	652 ± 35.8 nM	86.8 ± 5.3 nM	41.2%	40.2%	
CCCn1c2cc(OCCCCCCCOc3ccc4c5ccnc(C)c5n(CCC)c4c3)ccc2c2ccnc(C)c21 [Compound 7c, 1,7-bis ((1-methyl-9-propyl-9H-pyrido [3,4-b]indol-7-yl)oxy)heptane]		44.8%	>111.1	9.1 ± 0.6 nM		13.3 ± 0.6 µM	>25.6	39.2 ± 2.9 nM		34.1%		
C=CCn1c2cc(OCCCCCOc3ccc4c5ccnc(C)c5n(CC=C)c4c3)ccc2c2ccnc(C)c21 [Compound 5d, 1,5-bis ((9-allyl-1-methyl-9H-pyrido [3,4-b]indol-7-yl)oxy)pentane]		41.2%					>3.4	288 ± 21.3 nM		29.8%	43.6%	41.1%
CCn1c2cc(OCCCCOc3ccc4c5ccnc(C)c5n(CC)c4c3)ccc2c2ccnc(C)c21 [Compound 4b, 1,4-bis ((9-ethyl-1-methyl-9H-pyrido [3,4-b]indol-7-yl)oxy)butane]		36.7%	>1.4	686 ± 43.5 nM			>9.9	101 ± 6.8 nM		28.6%	27.6%	
C=CCn1c2cc(OCCCCCCCOc3ccc4c5ccnc(C)c5n(CC=C)c4c3)ccc2c2ccnc(C)c21 [Compound 7d, 1,7-bis ((9-allyl-1-methyl-9H-pyrido [3,4-b]indol-7-yl)oxy)heptane]			0.2	74.6 ± 5.2 nM	12.6 ± 0.76 nM	17.1 ± 0.6 µM		896 ± 65.4 nM	23.7 ± 1.3 nM			
CCn1c2cc(OCCCCCOc3ccc4c5ccnc(C)c5n(CC)c4c3)ccc2c2ccnc(C)c21 [Compound 5b, 1,5-bis ((9-ethyl-1-methyl-9H-pyrido [3,4-b]indol-7-yl)oxy)pentane]							8.1	115 ± 7.36 nM	928 ± 62.1 nM	33.7%	31.8%	42.4%
C=CCn1c2cc(OCCCCOc3ccc4c5ccnc(C)c5n(CC=C)c4c3)ccc2c2ccnc(C)c21 [Compound 4d, 1,4-bis ((9-allyl-1-methyl-9H-pyrido [3,4-b]indol-7-yl)oxy)butane]	45.6%	32.9%								30.3%	35.5%	49.3%
